# In patent US20130065818A1, “Arylamide Compounds And Compositions And Uses Thereof” (POLYMEDIX, priority 2006, published 2013):
# Where “and” joins values, the source holds several entries; their conditions need not be identical. Equal entries are not always repeated.
# Columns and labels:
# [1] = test system: fluoroquinolone-resistant, methicillin-resistant Staphylococcus aureus (K950); assay: NZW rabbit keratitis model, corneal colony counts; format: in vivo; conditions: for Log10 CFU/ml, Mean / Log10 CFU/ml, Median / Log10 CFU/ml / CFU/ml: Example 11; for Log10 CFU/ml, Mean / Log10 CFU/ml, Median: count 3; for Log10 CFU/ml / CFU/ml: individual cornea; for CFU/ml: Inoculum = 1098 CFU/cornea; for Corneal colony count, Mean / Corneal colony count, Median / Corneal colony count, TrMean: N=3; for Corneal colony count, log / Corneal colony count: individual corneas; for Corneal colony count: Inoculum = 1048 cfu/cornea, 1 hour after final drop; for Log10 CFU/ml, group comparison (Duncan Multiple Comparisons Test): P = 0.05, < = significantly fewer colony counts
# Source text: One purpose of the following experiments was to compare the efficacy of 1% Oligomer 2, 0.5% Oligomer 2, and 5% vancomycin in the treatment of a fluoroquinolone-resistant, methicillin-resistant Staphylococcus aureus infection in the NZW rabbit keratitis model with or without intact corneal epithelia.
# Nothing was done to the right eyes.
# One purpose of the following experiments was to compare the efficacy of 0.25% Oligomer 2, with and without 0.005% benzalkonium chloride, and 5% vancomycin in the treatment of a fluoroquinolone-resistant, methicillin-resistant Staphylococcus aureus infection in the NZW rabbit keratitis model with or without intact corneal epithelia. The 0.005% benzalkonium chloride has been added to try to increase the penetration of 0.25% Oligomer 2 through the corneal epithelium.
# One purpose of the following experiments was to determine the efficacy of 0.25% Oligomer 4, with and without 200 μM Farnesol, and 200 μM Farnesol in the treatment of a fluoroquinolone-resistant and methicillin-resistant Staphylococcus aureus infection in the NZW rabbit keratitis model with or without intact corneal epithelia. The 200 μM Farnesol has been added to try to increase the efficacy and penetration of 0.25% Oligomer 4 through the corneal epithelium.
# [2] = NZW rabbit keratitis model, clinical evaluation (Total Ocular Score); conditions: for Total Ocular Score: Example 12 data display; for Chemosis score / Conj. score / Corneal Edema score / Corneal Infiltrate score / Discharge score / Iritis score: scale 0 = Normal to 3.0 = Severe
# Experimental: Fifteen rabbits were received from Myrtles' Rabbitry, Thompson Station, TN. The clinical isolate of fluoroquinolone-resistant, methicillin-resistant (MRSA) Staphylococcus aureus (K950) was subcultured on 5% sheep blood agar and incubated at 37° C. in 6% CO2 overnight. The next morning, the MRSA strain was suspended in sterile trypticase soy broth to a 0.5 McFarland Standard, containing approximately 5×10^8 cfu/ml of bacteria. The absorbance of the suspension was measured at 650 nm using a Beckman DU-70 spectrophotometer. OD readings of 0.07 corresponded to 5×10^8 cfu/ml of bacteria. This concentration was appropriately diluted in sterile trypticase soy broth to provide the inoculum of approximately 1,000 (1.0×10^3) cfu/eye in 25 μl. Colony counts were performed on the inoculum to determine the actual cfu inoculated. Following general anesthesia with ketamine and xylazine and topical anesthesia with proparacaine and prior to bacterial inoculation in the left eyes, 6 mm areas of the corneal epithelia was removed centrally with an Amoils epithelial scrubber. Nothing was done to the right eyes. The 15 rabbits were then inoculated intrastromally in both eyes with 25 μl of the bacterial dilution of approximately 10^3 cfu/eye of the bacteria. The bacterial inoculation of the left eyes was directly under the epithelial defect created by the Amoils epithelial scrubber. The epithelia were removed in the left corneas in order to determine whether this layer of the cornea is a barrier for Oligomer 2 penetration when compared to the right cornea with an intact epithelium. A colony count was done on the inoculum to determine the actual cfu inoculated. The rabbits were immediately treated with analgesia in the form of and intramuscular injection of ketoprofen, 1.5 mg/kg. After 4 hours, the 15 rabbits were divided into 4 treatment groups and one untreated control group sacrificed at the onset of therapy. Both eyes of each rabbit of the treatment groups were treated with one 37 μl drop of the coded solutions or control Saline or 1 drop of vancomycin from its dropper bottle. The Oligomer 2 concentrations were masked and labeled as 1 and 2. The masked concentrations were 1% Oligomer 2 and 0.5% Oligomer 2 but the specific concentrations of solutions were not known to the lab workers who carried out the experiment. The vancomycin and control (Tris-Buffered Saline) were not masked.
# Treatment was scheduled for every 15 minutes for 5 hours (21 total doses). However, PMX-1 and PMX-2 were exhausted after the 19th dose. Therefore, the actual treatment was 15 minutes for 4.5 hours (19 total doses). The 3 rabbits in group V were sacrificed 4 hours PI and large 9.5 mm buttons were removed from the corneas. These were placed in 1 ml of PBS and kept on ice. The corneal buttons were homogenized for 25 seconds on ice using the motorized homogenizer. After homogenization, colony counts were done on the homogenates using 5% sheep blood agar plates to determine the amount of bacteria contained in the corneas at the onset of therapy. Following the completion of therapy, the eyes were examined for clinical signs of infection. One hour after the final treatment, the treated rabbits (Groups I-IV) were sacrificed and large 9.5 mm buttons were removed from the corneas. These were placed in 1 ml of PBS and kept on ice. The corneal buttons were homogenized for 25 seconds on ice using the motorized homogenizer. After homogenization, colony counts were performed on the homogenates using 5% sheep blood agar plates to determine the amount of bacteria contained in the corneas after treatment. The next morning, the plates were counted and the number of cfu/eye of Staphylococcus aureus was determined for each cornea.
# Fifteen rabbits were received from Myrtles' Rabbitry, Thompson Station, TN.
# [3] = Example 11, Oligomer 4 / Farnesol study, abraded epithelium, individual eye
# [4] = Example 11, abraded epithelium, count 3
# [5] = Example 12, Ker-3 and Ker-4 combined, abraded epithelium, count 6
# [6] = Example 11, Oligomer 4 / Farnesol study, intact epithelium, individual eye
# [7] = Example 11, intact epithelium, count 3
# [8] = Example 12, Ker-3 and Ker-4 combined, intact epithelium, count 6
# [9] = Abraded Epithelium (AE), individual eyes, Ker-1, drops every 15 min, 19 doses
# [10] = Intact Epithelium (IE), individual eyes, Ker-1, drops every 15 min, 19 doses
smiles,measurement,setting,value
CC(C)=CCCC(C)=CCCC(C)=CCO [FARN-AE],"Log10 CFU/ml, Mean",[1]; abraded epithelium,6.8762 Log10 CFU/ml
same,"Log10 CFU/ml, Median",[1]; abraded epithelium,6.8893 Log10 CFU/ml
same,Log10 CFU/ml,[1]; abraded epithelium,6.889 Log10 CFU/ml and 6.823 Log10 CFU/ml and 6.916 Log10 CFU/ml
same,CFU/ml,[1]; abraded epithelium,7750000 CFU/ml and 6650000 CFU/ml and 8250000 CFU/ml
same,Chemosis,[2]; [3],2.0 and 1.5 (2×)
same,Conj.,[2]; [3],2.0 and 1.5 (2×)
same,Corneal Edema,[2]; [3],2.0 and 1.0 (2×)
same,Corneal Infiltrate,[2]; [3],1.0 (2×) and 0.5
same,Discharge,[2]; [3],2.0 and 1.5 (2×)
same,Iritis,[2]; [3],2.0 and 1.5 (2×)
same,Total Score,[2]; [3],11.0 and 7.5 and 8.0
same,"Total Ocular Score, Mean",[2]; [4],8.83
same,"Total Ocular Score, Median",[2]; [4],8.00
same,"Total Ocular Score, Mean",[2]; [5],9.083
same,"Total Ocular Score, Median",[2]; [5],8.500
same,Total Ocular Score,"[2]; Ker-3, abraded epithelium, individual eye",11.0 and 8.5 (2×)
same,Total Ocular Score,"[2]; Ker-4, abraded epithelium, individual eye",11.0 and 7.5 and 8.0
CC(C)=CCCC(C)=CCCC(C)=CCO [FARN-IE],"Log10 CFU/ml, Mean",[1]; intact epithelium,7.418 Log10 CFU/ml
same,"Log10 CFU/ml, Median",[1]; intact epithelium,7.330 Log10 CFU/ml and 7.3304 Log10 CFU/ml
same,Log10 CFU/ml,[1]; intact epithelium,7.655 Log10 CFU/ml and 7.27 Log10 CFU/ml and 7.33 Log10 CFU/ml
same,CFU/ml,[1]; intact epithelium,45200000 CFU/ml and 18600000 CFU/ml and 21400000 CFU/ml
same,Chemosis,[2]; [6],1.5 (2×) and 1.0
same,Conj.,[2]; [6],1.5
same,Corneal Edema,[2]; [6],1.0 (2×) and 0.5
same,Corneal Infiltrate,[2]; [6],2.0 (2×) and 1.5
same,Discharge,[2]; [6],1.5 (2×) and 1.0
same,Iritis,[2]; [6],1.5 (2×) and 2.0
same,Total Score,[2]; [6],9.0 and 7.0 and 9.5
same,"Total Ocular Score, Mean",[2]; [7],8.500
same,"Total Ocular Score, Median",[2]; [7],9.000
same,"Total Ocular Score, Mean",[2]; [8],9.000
same,"Total Ocular Score, Median",[2]; [8],9.250
same,Total Ocular Score,"[2]; Ker-3, intact epithelium, individual eye",10.0 (2×) and 8.5
same,Total Ocular Score,"[2]; Ker-4, intact epithelium, individual eye",9.0 and 7.0 and 9.5
CN[C@H](CC(C)C)C(=O)N[C@H]1C(=O)N[C@@H](CC(N)=O)C(=O)N[C@H]2C(=O)N[C@H]3C(=O)N[C@H](C(=O)N[C@H](C(=O)O)c4cc(O)cc(O)c4-c4cc3ccc4O)[C@H](O)c3ccc(c(Cl)c3)Oc3cc2cc(c3O[C@@H]2O[C@H](CO)[C@@H](O)[C@H](O)[C@H]2O[C@H]2C[C@](C)(N)[C@H](O)[C@H](C)O2)Oc2ccc(cc2Cl)[C@H]1O [VAN],"Corneal colony count, Mean",[1]; Abraded Epithelium,2.674 Log10 CFU/ml
same,"Corneal colony count, Median",[1]; Abraded Epithelium,2.845 Log10 CFU/ml
same,"Corneal colony count, TrMean",[1]; Abraded Epithelium,2.674 Log10 CFU/ml
same,"Corneal colony count, log",[1]; Abraded Epithelium,2.301 Log10 CFU/ml and 2.845 Log10 CFU/ml and 2.875 Log10 CFU/ml
same,Corneal colony count,[1]; Abraded Epithelium,200 CFU/ml and 700 CFU/ml and 750 CFU/ml
same,"Log10 CFU/ml, group comparison (Duncan Multiple Comparisons Test)",[1]; Abraded Epithelium,PMX-2 = VAN = PMX-1 < ONSET = CON
same,"Corneal colony count, Mean",[1]; Intact Epithelium,2.7239 Log10 CFU/ml
same,"Corneal colony count, Median",[1]; Intact Epithelium,2.7404 Log10 CFU/ml
same,"Corneal colony count, TrMean",[1]; Intact Epithelium,2.7239 Log10 CFU/ml
same,"Corneal colony count, log",[1]; Intact Epithelium,2.74 Log10 CFU/ml and 2.653 Log10 CFU/ml and 2.778 Log10 CFU/ml
same,Corneal colony count,[1]; Intact Epithelium,550 CFU/ml and 450 CFU/ml and 600 CFU/ml
same,"Log10 CFU/ml, group comparison (Duncan Multiple Comparisons Test)",[1]; Intact Epithelium,VAN < PMX-1 = PMX-2 = ONSET = CON
same,Chemosis score,[2]; [9],3.0 and 2.5 (2×)
same,Conj. score,[2]; [9],3.0 and 2.5 (2×)
same,Corneal Edema score,[2]; [9],0.5 and 1.0 (2×)
same,Corneal Infiltrate score,[2]; [9],0.5 and 0 (2×)
same,Discharge score,[2]; [9],3.0 and 2.0 and 2.5
same,Iritis score,[2]; [9],1.0 and 1.5 (2×)
same,Total Score,"[2]; Abraded Epithelium (AE), individual eyes, Ker-1, drops every 15 min, 19 doses, sum of six signs",11.0 and 9.5 and 10.0
same,"Total Ocular Score, Mean","[2]; Abraded Epithelium, N=3",10.167
same,"Total Ocular Score, Median","[2]; Abraded Epithelium, N=3",10.000
same,"Total Ocular Score, TrMean","[2]; Abraded Epithelium, N=3",10.167
same,"Total Ocular Score, group comparison (Duncan Multiple Comparisons Test)","[2]; IE and AE groups, P = 0.05",CON IE = CON AE < VAN AE = PMX-1AE = PMX-2AE = VAN IE < PMX-1 IE = PMX-2 IE
same,Chemosis score,[2]; [10],3.0
same,Conj. score,[2]; [10],2.5 and 3.0 (2×)
same,Corneal Edema score,[2]; [10],1.0
same,Corneal Infiltrate score,[2]; [10],0 (2×) and 0.5
same,Discharge score,[2]; [10],3.0 (2×) and 2.5
same,Iritis score,[2]; [10],2.0 (2×) and 1.0
same,Total Score,"[2]; Intact Epithelium (IE), individual eyes, Ker-1, drops every 15 min, 19 doses, sum of six signs",11.5 and 12.0 and 11.0
same,"Total Ocular Score, Mean","[2]; Intact Epithelium, N=3",11.500
same,"Total Ocular Score, Median","[2]; Intact Epithelium, N=3",11.500
same,"Total Ocular Score, TrMean","[2]; Intact Epithelium, N=3",11.500
